In ChEMBL document CHEMBL4321815, “Discovery of an Extremely Potent Thiazine-Based β-Secretase Inhibitor with Reduced Cardiovascular and Liver Toxicity at a Low Projected Human Dose” (J Med Chem, 2019):
pEC50: −log10 of the molar value.

Tests used:
[1] = Cmax in mouse at 2.5 mg/kg, po; format: ADME, organism-based; design: dose 2.5 mg/kg, route oral; settings: in vivo
[2] = Tmax in mouse at 2.5 mg/kg, po; format: ADME, organism-based; settings: in vivo
[3] = AUC in mouse at 2.5 mg/kg, po; format: ADME, organism-based; settings: in vivo
[4] = Oral bioavailability in mouse at 2.5 mg/kg; format: ADME, organism-based; settings: in vivo
[5] = Volume of distribution at steady state in Sprague-Dawley rat at 0.5 mg/kg, iv by LC/MS/MS analysis; format: ADME, organism-based; settings: in vivo, read-out: Vdss
[6] = Half life in Sprague-Dawley rat at 0.5 mg/kg, iv by LC/MS/MS analysis; format: ADME, organism-based; settings: in vivo
[7] = Cmax in Sprague-Dawley rat at 2.5 mg/kg, po by LC/MS/MS analysis; format: ADME, organism-based; design: dose 2.5 mg/kg, route oral; settings: in vivo
[8] = Tmax in Sprague-Dawley rat at 2.5 mg/kg, po by LC/MS/MS analysis; format: ADME, organism-based; settings: in vivo
[9] = AUC in Sprague-Dawley rat at 2.5 mg/kg, po by LC/MS/MS analysis; format: ADME, organism-based; settings: in vivo
[10] = Oral bioavailability in Sprague-Dawley rat at 2.5 mg/kg by LC/MS/MS analysis; format: ADME, organism-based; settings: in vivo
[11] = Clearance in dog at 0.5 mg/kg, iv; format: ADME, organism-based, Canis lupus familiaris; settings: in vivo
[12] = Volume of distribution at steady state in dog at 0.5 mg/kg, iv; format: ADME, organism-based, Canis lupus familiaris; settings: in vivo, read-out: Vdss
[13] = Half life in dog at 0.5 mg/kg, iv; format: ADME, organism-based, Canis lupus familiaris; settings: in vivo
[14] = Cmax in dog at 2.5 mg/kg, po; format: ADME, organism-based, Canis lupus familiaris; design: dose 2.5 mg/kg, route oral; settings: in vivo
[15] = AUC in dog at 2.5 mg/kg, po; format: ADME, organism-based, Canis lupus familiaris; settings: in vivo
[16] = Oral bioavailability in dog at 2.5 mg/kg; format: ADME, organism-based, Canis lupus familiaris; settings: in vivo
[17] = Clearance in Cynomolgus monkey at 0.5 mg/kg, iv by LC/MS/MS analysis; format: ADME, organism-based, Macaca fascicularis; settings: in vivo
[18] = Volume of distribution at steady state in Cynomolgus monkey at 0.5 mg/kg, iv by LC/MS/MS analysis; format: ADME, organism-based, Macaca fascicularis; settings: in vivo, read-out: Vdss
[19] = Half life in Cynomolgus monkey at 0.5 mg/kg, iv by LC/MS/MS analysis; format: ADME, organism-based, Macaca fascicularis; settings: in vivo
[20] = Tmax in Cynomolgus monkey at 2.5 mg/kg, po by LC/MS/MS analysis; format: ADME, organism-based, Macaca fascicularis; settings: in vivo
[21] = Cmax in Cynomolgus monkey at 2.5 mg/kg, po by LC/MS/MS analysis; format: ADME, organism-based, Macaca fascicularis; design: dose 2.5 mg/kg, route oral; settings: in vivo
[22] = AUC in Cynomolgus monkey at 2.5 mg/kg, po by LC/MS/MS analysis; format: ADME, organism-based, Macaca fascicularis; settings: in vivo
[23] = Oral bioavailability in Cynomolgus monkey at 2.5 mg/kg by LC/MS/MS analysis; format: ADME, organism-based, Macaca fascicularis; settings: in vivo
[24] = Toxicity in anesthetized guinea-pig at 0.19 to 6 mg/kg, iv administered for 5 mins; format: organism-based, Cavia porcellus; settings: in vivo
[25] = Toxicity in anesthetized dog assessed as induction of adverse effect at 0.08 to 2.5 mg/kg, iv administered for 5 mins measured after 5 to 30 mins; format: organism-based, Canis lupus familiaris; settings: in vivo
[26] = Toxicity in po dosed Sprague-Dawley rat administered as suspension for 2 weeks; format: organism-based; settings: in vivo
[27] = AUC (0 to 24 hrs) in Sprague-Dawley rat at 250 mg/kg/day administered as suspension for 2 weeks; format: ADME, organism-based; design: dose 250 mg/kg/day, time < 24 hr; settings: in vivo
[28] = Toxicity in po dosed Beagle dog assessed as induction of adverse effect administered for 2 weeks; format: organism-based, Canis lupus familiaris; settings: in vivo
[29] = AUC in Beagle dog at 6 mg/kg/day, po administered for 2 weeks; format: ADME, organism-based, Canis lupus familiaris; settings: in vivo
[30] = organism: Canis familiaris; assay: animal or person; format: functional, organism-based; settings: Canis lupus familiaris, Beagle
[31] = Tmax in dog at 2.5 mg/kg, po; format: ADME, organism-based, Canis lupus familiaris; settings: in vivo

C[C@H]1SC(N)=N[C@](C)(c2cc(NC(=O)c3cnc(OCF)cn3)ccc2F)[C@H]1F
Cmax [1]: 195 ng/mL | Tmax [2]: 0.3 h | AUC [3]: 596 ng·h/mL | bioavailability [4]: 58% | Vd [5]: 5 L/kg | half-life [6]: 2.2 h | Cmax [7]: 148 ng/mL | Tmax [8]: 0.7 h | AUC [9]: 566 ng·h/mL | bioavailability [10]: 38% | clearance [11]: 2.6 mL/min/kg | Vd [12]: 2.8 L/kg | half-life [13]: 13.7 h | Cmax [14]: 685 ng/mL | AUC [15]: 10400 ng·h/mL | bioavailability [16]: 95% | clearance [17]: 23 mL/min/kg | Vd [18]: 7 L/kg | half-life [19]: 4.9 h | Tmax [20]: 3 h | Cmax [21]: 54 ng/mL | AUC [22]: 429 ng·h/mL | bioavailability [23]: 24% | NOAEL [24]: > 6.9 µg/mL | fNOAEL [24]: 2.4 µM | NOAEL [25]: > 6.9 µg/mL | fNOAEL [25]: 1.3 µM | NOAEL at 336 h [26]: 250 mg/kg/day | AUC at 24 h [27]: 68000 ng·h/mL | NOAEL at 336 h [28]: 6 mg/kg/day | AUC at 336 h [29]: 41000 ng·h/mL | pEC50 [30]: 8.74 | Tmax [31]: 1.8 h
